# What was measured:
# [1] = tested on: Cryptococcus neoformans (DSM11959); assay: MIC assay against C. neoformans; format: cell-based; conditions: 35 °C, 24–48 h
# [2] = tested on: Microdochium bolleyi (DSM 62073); assay: MIC assay, filamentous fungus M. bolleyi; format: cell-based; conditions: 48–72 h
# [3] = tested on: Aspergillus flavus (DSM 1959); assay: MIC assay, filamentous fungus A. flavus; format: cell-based; conditions: DSM1959, DSM 1959, plant pathogen, 25 °C, 48–72 h
# [4] = tested on: Penicillium verrucosum (DSM 12639); assay: MIC assay, filamentous fungus P. verrucosum; format: cell-based; conditions: DSM12639, DSM 12639, plant pathogen, 25 °C, 48–72 h
# A. fumigatus (DSM 819) = assay: MIC assay, filamentous fungus A. fumigatus; format: cell-based; conditions: Aspergillus fumigatus, DSM819; DSM 819, human pathogen; 35 °C, 24–48 h
# [5] = tested on: Candida albicans (DSM 10697); assay: MIC assay, pathogenic yeast C. albicans; format: cell-based; conditions: DSM10697, 35 °C, 24–48 h
# [6] = tested on: Colletotrichum graminicola (DSM 63127); assay: MIC assay, filamentous fungus C. graminicola; format: cell-based; conditions: DSM63127, DSM 63127, plant pathogen, 25 °C, 48–72 h
# Magnaporthe oryzae = assay: microbe, parasite or virus in culture; format: cell-based; conditions: Pyricularia oryzae, read-out: MIC M. oryzae
# [7] = tested on: Trichophyton rubrum (DSM16111); assay: MIC assay, filamentous fungus T. rubrum; format: cell-based; conditions: DSM16111, human pathogen, 35 °C, 24–48 h
# [8] = tested on: Candida tropicalis (DSM 9419); assay: MIC assay, pathogenic yeast C. tropicalis; format: cell-based; conditions: DSM9419, 35 °C, 24–48 h
# in vitro = conditions: human, Caco-2
# [9] = tested on: Candida glabrata (DSM 11226); assay: MIC assay, pathogenic yeast C. glabrata; format: cell-based; conditions: Nakaseomyces glabratus, DSM11226, 35 °C, 24–48 h
# [10] = tested on: Candida auris (DSM 21092); assay: MIC assay, pathogenic yeast C. auris; format: cell-based; conditions: Candidozyma auris, DSM21092, 35 °C, 24–48 h
# [11] = tested on: Fusarium graminearum (DSM 1095); assay: microbe, parasite or virus in culture; format: cell-based; conditions: DSM1095, read-out: MIC F. graminearum
# [12] = Cytotoxicity, resazurin cell viability assay, A498; conditions: human
# [13] = Cytotoxicity, resazurin cell viability assay, HepG2; conditions: human
# [14] = Cytotoxicity, resazurin cell viability assay, Caco-2; conditions: human
# [15] = Cytotoxicity, resazurin cell viability assay, BEAS-2B; conditions: human
# [16] = Cytotoxicity, resazurin cell viability assay, HaCaT; conditions: human
# [17] = tested on: Staphylococcus aureus (ATCC 6538); assay: Antibacterial liquid MIC determination, S. aureus; format: cell-based; conditions: ATCC6538, Gram-positive
# [18] = tested on: various human cells, i.e., A498, BEAS-2B, Caco-2, HaCaT, and HepG2
# [19] = tested on: Enterobacter cloacae (DSM 30054); assay: Antibacterial liquid MIC determination, E. cloacae; format: cell-based; conditions: DSM30054, Gram-negative
# [20] = tested on: Acinetobacter baumannii (DSM 30007); assay: Antibacterial liquid MIC determination, A. baumannii; format: cell-based; conditions: DSM30007, Gram-negative
# [21] = C. neoformans DSM 11959, lowest concentration totally inhibiting growth
# [22] = Cryptococcus neoformans, DSM11959, C. neoformans DSM 11959, lowest concentration totally inhibiting growth
# [23] = DSM62073, DSM 62073, plant pathogen, 25 °C
smiles,measurement,setting,value
CCCCOc1ccc(/C=C2\CN(C(=O)OC(C)(C)C)C/C(=C\c3ccc(OCCCC)cc3OCCCC)C2=O)c(OCCCC)c1 [5h],MIC,[1]; [21],>250 µM
same,MIC,[1]; [22],> 250 µM
CCCCOc1ccc(/C=C2\CN(Cc3ccccc3)C/C(=C\c3ccc(OCCCC)cc3OCCCC)C2=O)c(OCCCC)c1 [3h],MIC,"[2]; DSM62073, 25 °C",7.8 µM
same,MIC,[2]; [23],31.2 µM
same,MIC,[3],31.2 µM
same,MIC,[4],62.5 µM
same,MIC,[1]; [22],7.8 µM
same,MIC,A. fumigatus (DSM 819),31.2 µM
same,MIC,[5],62.5 µM
same,MIC,[6],250 µM
same,MIC,Magnaporthe oryzae,7.8 µM
same,MIC,[7],7.8 µM
same,MIC,[8],125 µM
same,CC50 at 48 h,in vitro,629 µM
same,MIC,[9],7.8 µM
same,MIC,[10],7.8 µM
same,MIC,[11],125 µM
"CCCCOc1ccc(/C=C2\CN(CC)C/C(=C\c3ccc(OCCCC)cc3OCCCC)C2=O)c(OCCCC)c1 [2h, 3,5-bis((E)-2,4-dibutoxybenzylidene) -1-ethylpiperidin-4-one]",MIC,[2]; [23],62.5 µM
same,MIC,[3],> 250 µM
same,MIC,[4],125 µM
same,MIC,[1]; [22],31.2 µM
same,MIC,A. fumigatus (DSM 819),125 µM
same,MIC,[5],250 µM
same,MIC,[6],> 250 µM
same,MIC,Magnaporthe oryzae,15.6 µM
same,MIC,[7],62.5 µM
same,MIC,[8],250 µM
same,CC50 at 48 h,in vitro,697 µM
same,MIC,[9],31.2 µM
same,MIC,[10],31.2 µM
same,MIC,[11],> 250 µM
CCN1C/C(=C\c2ccc3c(c2)OCO3)C(=O)/C(=C/c2ccc3c(c2)OCO3)C1 [2i],MIC,[1]; [22],250 µM
same,CC50 at 48 h,in vitro,152 µM
CCCCOc1ccc(/C=C2\CN(CC)C/C(=C\c3ccc(OCCCC)c(OCCCC)c3OCCCC)C2=O)c(OCCCC)c1OCCCC [2m],MIC,[2]; [23],> 250 µM
same,MIC,[3],> 250 µM
same,MIC,[4],> 250 µM
same,MIC,"[1]; Cryptococcus neoformans, DSM11959, C. neoformans DSM 11959, […]",62.5 µM
same,MIC,A. fumigatus (DSM 819),250 µM
same,MIC,[5],125 µM
same,MIC,[6],> 250 µM
same,MIC,Magnaporthe oryzae,62.5 µM
same,MIC,[7],31.2 µM
same,MIC,[8],250 µM
same,CC50 at 48 h,in vitro,687 µM
same,MIC,[9],15.6 µM
same,MIC,[10],31.2 µM
same,MIC,[11],> 250 µM
CCN1C/C(=C\c2ccc([N+](=O)[O-])cc2)C(=O)/C(=C/c2ccc([N+](=O)[O-])cc2)C1 [1d],MIC,[1]; [22],250 µM
same,CC50 at 48 h,[12],486 µM
same,CC50 at 48 h,[13],314 µM
same,CC50 at 48 h,[14],95.4 µM
same,CC50 at 48 h,[15],364 µM
same,CC50 at 48 h,[16],163 µM
CCN1C/C(=C\c2ccccc2F)C(=O)/C(=C/c2ccccc2F)C1 [2j],MIC,[1]; [22],250 µM
same,CC50 at 48 h,in vitro,68.3 µM
CCN1C/C(=C\c2ccc(C(F)(F)F)cc2)C(=O)/C(=C/c2ccc(C(F)(F)F)cc2)C1 [1f],MIC,[1]; [22],250 µM
same,CC50 at 48 h,in vitro,47 µM
CCCCOc1ccc(/C=C2\CCC/C(=C\c3ccc(OCCCC)cc3OCCCC)C2=O)c(OCCCC)c1 [8h],MIC,[1]; [21],>250 µM
same,MIC,[1]; [22],> 250 µM
O=C1/C(=C/c2ccc[nH]2)CN(Cc2ccccc2)C/C1=C\c1ccc[nH]1 [3j],MIC,[17],250 µM
same,MIC,[1]; [22],62.5 µM
same,CC50 at 48 h,in vitro,26.1 µM
"OC(Cn1cncn1)(Cn1cncn1)c1ccc(F)cc1F [Fluconazole, reference compound]",MIC,[2]; [23],> 1000 µM
same,MIC,[3],> 1000 µM
same,CC50 (range depending on the cell model),[18],841.2 to >1000
same,MIC,[4],> 1000 µM
same,MIC,[1]; [22],25 µM
same,MIC,A. fumigatus (DSM 819),> 1000 µM
same,MIC,[5],6.25 µM
same,MIC,[6],50 µM
same,MIC,Magnaporthe oryzae,12.5 µM
same,CC50 at 48 h,[12]; A498 kidney cells,994 µM
same,CC50 at 48 h,[13]; HepG2 liver cells,> 1000 µM
same,MIC,[7],> 1000 µM
same,CC50 at 48 h,[14],977 µM
same,CC50 at 48 h,[15]; BEAS-2B airway epithelial cells,942 µM
same,MIC,[8],1000 µM
same,CC50 at 48 h,[16]; HaCaT skin cells,841 µM
same,MIC,[9],250 µM
same,MIC,[10],500 µM
same,MIC,[11],> 1000 µM
CCCCOc1ccc(/C=C2\CN(Cc3ccccc3)C/C(=C\c3ccc(OCCCC)cc3)C2=O)cc1 [2o],CC50 (range depending on the cell model),[18],64.9 to >1000
same,MIC,[1]; [22],125 µM
same,CC50 at 48 h,in vitro,455 µM
CCN1C/C(=C\c2ccc(Cl)cc2)C(=O)/C(=C/c2ccc(Cl)cc2)C1 [1e],MIC,[1]; [22],250 µM
same,CC50 at 48 h,in vitro,98.6 µM
CCN1C/C(=C\c2ccc[nH]2)C(=O)/C(=C/c2ccc[nH]2)C1 [2k],MIC,[19],250 µM
same,MIC,[1]; [22],250 µM
same,MIC,[20],250 µM
